Source: the NIST ThermoML archive (doi:10.1021/je020159m)

How the values were obtained:
[1] = excess molar enthalpy (molar enthalpy of mixing); xn = mol fraction of the nth substance listed; conditions: 298.15 K, 101.33 kPa, Liquid, Flow calorimetry
[2] = 298.15 K; 101.33 kPa; Liquid; Vibrating tube method

C1CCOC1 [tetrahydrofuran] + C1CCCCC1
[1]
Conditions	excess molar enthalpy [kcal/mol]
x1 = 0.05	0.0385
x1 = 0.1	0.0709
x1 = 0.15	0.0988
x1 = 0.2001	0.121
x1 = 0.2499	0.1399
x1 = 0.2997	0.1529
x1 = 0.35	0.1636
x1 = 0.4003	0.1707
x1 = 0.4504	0.174
x1 = 0.4999	0.1745
x1 = 0.5498	0.1722
x1 = 0.6	0.1663
x1 = 0.65	0.1569
x1 = 0.7003	0.1444
x1 = 0.7498	0.1264
x1 = 0.8	0.108
x1 = 0.8505	0.0858
x1 = 0.9003	0.0599
x1 = 0.95	0.0309

CCCCCC [hexane]
Conditions	mass density [kg/m3]
[2]	655.42

C1CCOC1 [tetrahydrofuran] + CCCCCC
[1]
Conditions	excess molar enthalpy [kcal/mol]
x1 = 0.05	0.0362
x1 = 0.1	0.0678
x1 = 0.1499	0.0942
x1 = 0.2001	0.118
x1 = 0.25	0.1371
x1 = 0.2998	0.1538
x1 = 0.3503	0.1645
x1 = 0.4003	0.1733
x1 = 0.4504	0.1788
x1 = 0.5005	0.1794
x1 = 0.5508	0.1793
x1 = 0.6003	0.1743
x1 = 0.6503	0.1663
x1 = 0.7002	0.1544
x1 = 0.75	0.1389
x1 = 0.8015	0.119
x1 = 0.8501	0.0947
x1 = 0.8998	0.0693
x1 = 0.9499	0.0365

CCCCCCCCCC [decane]
Conditions	mass density [kg/m3]
[2]	726.37

C1CCCCC1 [cyclohexane]
Conditions	mass density [kg/m3]
[2]	773.92

C1CCOC1 [tetrahydrofuran]
Conditions	mass density [kg/m3]
[2]	882.09

C1CCOC1 [tetrahydrofuran] + CCCCCCCCCC
[1]
Conditions	excess molar enthalpy [kcal/mol]
x1 = 0.05	0.0371
x1 = 0.0999	0.0724
x1 = 0.15	0.104
x1 = 0.2	0.1308
x1 = 0.2503	0.1543
x1 = 0.3	0.1748
x1 = 0.3498	0.1922
x1 = 0.4002	0.2066
x1 = 0.4509	0.2141
x1 = 0.4999	0.2201
x1 = 0.5499	0.2222
x1 = 0.6002	0.2203
x1 = 0.6501	0.2133
x1 = 0.7003	0.2016
x1 = 0.7502	0.185
x1 = 0.8003	0.1621
x1 = 0.8502	0.134
x1 = 0.9011	0.098
x1 = 0.95	0.0545
